The source of these data is patent US9580437B2, “Triazolopyrimidine compounds and uses thereof” (Novartis AG, priority 2014, dated 2017).

The target in one test is EED (1-441)-His protein (Homo sapiens (Human), UniProt O75530). In words: EED-H3K27Me3 peptide competition binding assay by AlphaScreen. The settings on record: read-out: (a) IC50 EED Alphascreen binding Qualified. An excerpt:
EED-H3K27Me3 peptide competition binding assay by AlphaScreen (α-screen)
(In general: Alpha assays give light when donor and acceptor beads are brought close together.)

In test [1] the target is wild type PRC2 (wtPRC2) complex (Homo sapiens (Human), UniProt O75530). Put plainly: EED LC-MS assay. It is filed as biochemical. The settings on record: read-out: (b) IC50 EED LC-MS Qualified. The protocol:
A 6 μL solution of 3 μM of the peptide substrate H3K27Me0 (histone H3[21-44]-biotin) in reaction buffer was added to initiate each reaction. […] ELISA (H3K27 Methylation) Assay

wild type PRC2 (wtPRC2) complex, sequence (O75530 whole entry): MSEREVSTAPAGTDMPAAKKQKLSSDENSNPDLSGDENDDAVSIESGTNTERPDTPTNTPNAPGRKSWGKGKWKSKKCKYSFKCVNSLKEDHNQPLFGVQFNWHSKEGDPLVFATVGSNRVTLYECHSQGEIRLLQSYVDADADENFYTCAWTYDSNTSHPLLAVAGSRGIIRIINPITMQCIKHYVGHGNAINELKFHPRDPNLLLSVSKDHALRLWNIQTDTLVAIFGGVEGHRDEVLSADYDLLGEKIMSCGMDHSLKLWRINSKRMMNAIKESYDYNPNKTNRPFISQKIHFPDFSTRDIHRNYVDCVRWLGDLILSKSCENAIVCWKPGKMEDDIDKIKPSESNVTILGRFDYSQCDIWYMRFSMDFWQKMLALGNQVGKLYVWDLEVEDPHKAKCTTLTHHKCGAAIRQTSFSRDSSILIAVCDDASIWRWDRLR
wild type PRC2 (wtPRC2) complex, sequence (Q15910 whole entry partner): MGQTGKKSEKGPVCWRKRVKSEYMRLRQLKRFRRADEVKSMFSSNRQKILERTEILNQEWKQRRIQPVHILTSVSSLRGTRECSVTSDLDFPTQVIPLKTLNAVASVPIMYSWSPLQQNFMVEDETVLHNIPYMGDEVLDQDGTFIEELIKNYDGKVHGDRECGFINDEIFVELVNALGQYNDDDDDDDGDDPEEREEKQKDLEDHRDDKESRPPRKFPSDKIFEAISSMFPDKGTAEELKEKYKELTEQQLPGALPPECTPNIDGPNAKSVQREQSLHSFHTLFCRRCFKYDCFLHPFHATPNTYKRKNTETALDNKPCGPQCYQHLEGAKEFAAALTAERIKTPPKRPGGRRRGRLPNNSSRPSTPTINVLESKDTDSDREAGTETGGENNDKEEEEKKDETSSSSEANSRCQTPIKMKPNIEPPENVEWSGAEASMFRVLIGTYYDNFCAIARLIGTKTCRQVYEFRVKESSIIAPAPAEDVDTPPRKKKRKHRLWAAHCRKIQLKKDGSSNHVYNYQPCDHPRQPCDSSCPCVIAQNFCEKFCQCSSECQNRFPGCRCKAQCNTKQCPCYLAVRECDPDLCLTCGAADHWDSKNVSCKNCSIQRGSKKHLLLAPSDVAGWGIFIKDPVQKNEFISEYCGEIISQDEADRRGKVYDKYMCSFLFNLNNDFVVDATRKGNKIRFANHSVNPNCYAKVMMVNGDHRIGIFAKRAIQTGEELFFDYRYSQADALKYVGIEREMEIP
wild type PRC2 (wtPRC2) complex, sequence (Q15022 whole entry partner): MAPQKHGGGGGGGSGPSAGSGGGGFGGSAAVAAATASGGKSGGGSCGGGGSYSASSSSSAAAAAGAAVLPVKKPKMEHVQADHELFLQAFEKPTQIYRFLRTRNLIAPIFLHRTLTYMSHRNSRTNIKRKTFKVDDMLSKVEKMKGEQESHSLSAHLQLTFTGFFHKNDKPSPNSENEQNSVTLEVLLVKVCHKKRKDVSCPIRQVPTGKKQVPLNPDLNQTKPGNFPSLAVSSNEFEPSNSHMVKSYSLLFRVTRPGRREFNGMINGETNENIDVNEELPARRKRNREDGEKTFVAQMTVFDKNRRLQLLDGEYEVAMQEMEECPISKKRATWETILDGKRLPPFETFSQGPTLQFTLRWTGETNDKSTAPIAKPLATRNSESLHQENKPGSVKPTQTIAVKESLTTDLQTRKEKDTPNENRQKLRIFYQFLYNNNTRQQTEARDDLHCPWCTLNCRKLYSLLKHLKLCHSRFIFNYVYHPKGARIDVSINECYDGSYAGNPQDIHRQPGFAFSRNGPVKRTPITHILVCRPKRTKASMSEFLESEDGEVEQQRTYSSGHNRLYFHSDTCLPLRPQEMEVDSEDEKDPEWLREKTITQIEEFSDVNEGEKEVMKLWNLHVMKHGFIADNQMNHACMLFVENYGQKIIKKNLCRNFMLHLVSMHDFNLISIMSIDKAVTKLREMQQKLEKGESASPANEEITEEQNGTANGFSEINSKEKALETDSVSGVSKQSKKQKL
EED (1-441)-His protein, sequence (O75530 whole entry): as the sequence (O75530 whole entry) above

By IC50 is commonly meant the concentration at which inhibition is half-maximal. On to `CN(C)C(=O)c1ccc(-c2cnc(NCc3cccc4c3CCO4)n3cnnc23)cc1` [Example 42, 4-(5-(((2,3-dihydrobenzofuran-4-yl)methyl)amino)-[1,2,4]triazolo[4,3-c]pyrimidin-8-yl)-N,N-dimethylbenzamide], for which the IC50 at EED (1-441)-His protein was 52.5 nM; in test [1], 86.1 nM.
On the same counts, the results for `Fc1ccc2c(c1CNc1ncc(-c3ccc(C4CC4)nc3)c3nncn13)CCO2` [Example 119, 8-(6-cyclopropylpyridin-3-yl)-N-((5-fluoro-2,3-dihydrobenzofuran-4-yl)methyl)-[1,2,4]triazolo[4,3-c]pyrimidin-5-amine] are 4 nM and 6.6 nM.
The corresponding values for `CS(=O)(=O)c1ccc(-c2cnc(NCc3c(F)ccc4c3CCO4)n3cnnc23)cc1` [Example 37, N-((5-fluoro-2,3-dihydrobenzofuran-4-yl)methyl)-8-(4-(methylsulfonyl)phenyl)-[1,2,4]triazolo[4,3-c]pyrimidin-5-amine] are 12.3 nM and 20.7 nM.
For the compound `COCc1ncc(-c2cnc(NCc3cccc4c3CCO4)n3cnnc23)cc1C` [Example 83, N-((2,3-dihydrobenzofuran-4-yl)methyl)-8-(6-(methoxymethyl)-5-methylpyridin-3-yl)-[1,2,4]triazolo[4,3-c]pyrimidin-5-amine], the half-maximal inhibitory concentration (IC50) at EED (1-441)-His protein came to 10.5 nM; in test [1], 22.8 nM.
In the case of `CN1CCN(c2ccc(-c3cnc(NCc4cccc5occc45)n4cnnc34)cn2)CC1` [Example 211, N-(benzofuran-4-ylmethyl)-8-(6-(4-methylpiperazin-1-yl)pyridin-3-yl)-[1,2,4]triazolo[4,3-c]pyrimidin-5-amine], the concentration for half-maximal inhibition (IC50) at EED (1-441)-His protein came out at 32.2 nM; in test [1] it was 28.8 nM.
Take `Nc1ccc(-c2cnc(NCc3cccc4c3CCO4)n3cnnc23)cn1` [Example 48, 8-(6-aminopyridin-3-yl)-N-((2,3-dihydrobenzofuran-4-yl)methyl)-[1,2,4]triazolo[4,3-c]pyrimidin-5-amine]: the figures for the IC50 (at EED (1-441)-His protein; in test [1]) were 12.9 nM and 30.2 nM, respectively.
With `CS(=O)(=O)c1ccc(-c2cnc(NCc3c(F)ccc4c3CCO4)n3cnnc23)cn1` [Example 56, N-((5-fluoro-2,3-dihydrobenzofuran-4-yl)methyl)-8-(6-(methylsulfonyl)pyridin-3-yl)-[1,2,4]triazolo[4,3-c]pyrimidin-5-amine], the 50% inhibitory concentration (IC50) on EED (1-441)-His protein was determined as 19.6 nM; in test [1] it was 30.9 nM.
Take `CN1CCN(c2ccc(-c3cnc(NCc4cccc5c4CCO5)n4cnnc34)cn2)CC1` [Example 20, N-((2,3-dihydrobenzofuran-4-yl)methyl)-8-(6-(4-methylpiperazin-1-yl)pyridin-3-yl)-[1,2,4]triazolo[4,3-c]pyrimidin-5-amine]: the concentration for half-maximal inhibition (IC50) amounted to 14.4 nM on EED (1-441)-His protein and 17.1 nM in test [1].
In the case of `CN(C)CCc1ccc(-c2cnc(NCc3cccc4c3CCO4)n3cnnc23)cn1` [Example 53, N-((2,3-dihydrobenzofuran-4-yl)methyl)-8-(6-(2-(dimethylamino)ethyl)pyridin-3-yl)-[1,2,4]triazolo[4,3-c]pyrimidin-5-amine], the IC50 at EED (1-441)-His protein amounted to 12.4 nM; in test [1] it was 28.7 nM.
`Cc1ncccc1-c1cnc(NCc2cccc3c2CCO3)n2cnnc12` [Example 123, N-((2,3-dihydrobenzofuran-4-yl)methyl)-8-(2-methylpyridin-3-yl)-[1,2,4]triazolo[4,3-c]pyrimidin-5-amine]: the figures for the IC50 (at EED (1-441)-His protein; in test [1]) were 12.3 nM and 23.4 nM, respectively.
The corresponding values for `COCCc1ccc(-c2cnc(NCc3cccc4c3CCO4)n3cnnc23)cn1` [Example 86, N-((2,3-dihydrobenzofuran-4-yl)methyl)-8-(6-(2-methoxyethyl)pyridin-3-yl)-[1,2,4]triazolo[4,3-c]pyrimidin-5-amine] are 11.1 nM and 26.7 nM.
In the case of `c1cc(CNc2ncc(-c3cncc(N4CCNCC4)c3)c3nncn23)c2c(c1)OCC2` [Example 77, N-((2,3-dihydrobenzofuran-4-yl)methyl)-8-(5-(piperazin-1-yl)pyridin-3-yl)-[1,2,4]triazolo[4,3-c]pyrimidin-5-amine], the IC50 was found to be 21.6 nM on EED (1-441)-His protein and 52.3 nM in test [1].
For `O=C(c1ccc(-c2cnc(NCc3cccc4c3CCO4)n3cnnc23)cc1)N1CCNCC1` [Example 41, (4-(5-(((2,3-dihydrobenzofuran-4-yl)methyl)amino)-[1,2,4]triazolo[4,3-c]pyrimidin-8-yl)phenyl)(piperazin-1-yl)methanone], the half-inhibitory concentration (IC50) on EED (1-441)-His protein came out at 13.2 nM; in test [1], 9.7 nM.
Regarding `COc1cc(Cl)c(-c2cnc(NCc3c(F)ccc4c3CCO4)n3cnnc23)cn1` [Example 138, 8-(4-chloro-6-methoxypyridin-3-yl)-N-((5-fluoro-2,3-dihydrobenzofuran-4-yl)methyl)-[1,2,4]triazolo[4,3-c]pyrimidin-5-amine], the IC50 on EED (1-441)-His protein stood at 1.9 nM; in test [1], 8.4 nM.
As to `CCc1ccc(-c2cnc(NCc3c(F)ccc4c3CCO4)n3cnnc23)c(C)n1` [Example 229, 8-(6-ethyl-2-methylpyridin-3-yl)-N-((5-fluoro-2,3-dihydrobenzofuran-4-yl)methyl)-[1,2,4]triazolo[4,3-c]pyrimidin-5-amine], the IC50 on EED (1-441)-His protein was determined as 5.9 nM; in test [1], 6.7 nM.
As for `Cn1ncc(-c2cnc(NCc3c(F)ccc4c3CCO4)n3cnnc23)c1CO` [Example 227, (4-(5-(((5-fluoro-2,3-dihydrobenzofuran-4-yl)methyl)amino)-[1,2,4]triazolo[4,3-c]pyrimidin-8-yl)-1-methyl-1H-pyrazol-5-yl)methanol], the half-inhibitory concentration (IC50) at EED (1-441)-His protein was 6.1 nM; in test [1], 7.5 nM.
On to `Fc1ccc2c(c1CNc1ncc(-c3ccc(Cl)cc3Cl)c3nncn13)CCO2` [Example 146, 8-(2,4-dichlorophenyl)-N-((5-fluoro-2,3-dihydrobenzofuran-4-yl)methyl)-[1,2,4]triazolo[4,3-c]pyrimidin-5-amine], for which the IC50 was 23 nM at EED (1-441)-His protein and 38.2 nM in test [1].
Turning to `Cc1cc(C(=O)N2CCCC2)ncc1-c1cnc(NCc2c(F)ccc3c2CCO3)n2cnnc12` [Example 130, (5-(5-(((5-fluoro-2,3-dihydrobenzofuran-4-yl)methyl)amino)-[1,2,4]triazolo[4,3-c]pyrimidin-8-yl)-4-methylpyridin-2-yl)(pyrrolidin-1-yl)methanone], the IC50 came out at 5 nM at EED (1-441)-His protein and 13.7 nM in test [1].
For `Cn1cc(-c2cnc(NCc3cccc4c3CCO4)n3cnnc23)cn1` [Example 25, N-((2,3-dihydrobenzofuran-4-yl)methyl)-8-(1-methyl-1H-pyrazol-4-yl)-[1,2,4]triazolo[4,3-c]pyrimidin-5-amine], the values for the concentration for half-maximal inhibition (IC50) (on EED (1-441)-His protein; in test [1]) were 30.7 nM and 44.9 nM, respectively.
On the same counts, the results for `Cc1cc(-c2cnc(NCc3c(F)ccc4c3CCO4)n3cnnc23)n(C)n1` [Example 1, 8-(1,3-dimethyl-1H-pyrazol-5-yl)-N-((5-fluoro-2,3-dihydrobenzofuran-4-yl)methyl)-[1,2,4]triazolo[4,3-c]pyrimidin-5-amine] are 4.1 nM and 8.2 nM.
For the compound `Fc1ccc2c(c1CNc1ncc(-c3cnn(C4CC4)c3)c3nncn13)CCO2` [Example 150, 8-(1-cyclopropyl-1H-pyrazol-4-yl)-N-((5-fluoro-2,3-dihydrobenzofuran-4-yl)methyl)-[1,2,4]triazolo[4,3-c]pyrimidin-5-amine], the results for the IC50 (on EED (1-441)-His protein; in test [1]) were 4.5 nM and 7 nM, respectively.
Take `Cc1nc(C2CC2)ncc1-c1cnc(NCc2c(F)ccc3c2CCO3)n2cnnc12` [Example 8, 8-(2-cyclopropyl-4-methylpyrimidin-5-yl)-N-((5-fluoro-2,3-dihydrobenzofuran-4-yl)methyl)-[1,2,4]triazolo[4,3-c]pyrimidin-5-amine]: the IC50 at EED (1-441)-His protein came to 4.9 nM; in test [1], 7.2 nM.
Consider `Fc1ccc2c(c1CNc1ncc(-c3cncnc3)c3nncn13)CCO2` [Example 206, N-((5-fluoro-2,3-dihydrobenzofuran-4-yl)methyl)-8-(pyrimidin-5-yl)-[1,2,4]triazolo[4,3-c]pyrimidin-5-amine], for which the 50% inhibitory concentration (IC50) on EED (1-441)-His protein is 9.1 nM; in test [1] it was 9.5 nM.
For `Cc1c(-c2cnc(NCc3c(F)ccc4c3CCO4)n3cnnc23)ccnc1CF` [Example 182, N-((5-fluoro-2,3-dihydrobenzofuran-4-yl)methyl)-8-(2-(fluoromethyl)-3-methylpyridin-4-yl)-[1,2,4]triazolo[4,3-c]pyrimidin-5-amine], the figures for the IC50 (on EED (1-441)-His protein; in test [1]) were 3.1 nM and 5.6 nM, respectively.
The corresponding values for `Clc1ccncc1-c1cnc(NCc2cccc3c2CCO3)n2cnnc12` [Example 50, 8-(4-chloropyridin-3-yl)-N-((2,3-dihydrobenzofuran-4-yl)methyl)-[1,2,4]triazolo[4,3-c]pyrimidin-5-amine] are 19.1 nM and 41.2 nM.
Regarding `COc1ncc(-c2cnc(NCc3c(F)ccc4c3CCO4)n3cnnc23)cn1` [Example 174, N-((5-fluoro-2,3-dihydrobenzofuran-4-yl)methyl)-8-(2-methoxypyrimidin-5-yl)-[1,2,4]triazolo[4,3-c]pyrimidin-5-amine], the IC50 was 4.7 nM at EED (1-441)-His protein and 6.2 nM in test [1].
Take `CCOc1ncc(-c2cnc(NCc3c(F)ccc4c3CCO4)n3cnnc23)c(C)n1` [Example 226, 8-(2-ethoxy-4-methylpyrimidin-5-yl)-N-((5-fluoro-2,3-dihydrobenzofuran-4-yl)methyl)-[1,2,4]triazolo[4,3-c]pyrimidin-5-amine]: the half-inhibitory concentration (IC50) is 3.9 nM at EED (1-441)-His protein and 5 nM in test [1].
With `Fc1ccc2c(c1CNc1ncc(-c3cncnc3C(F)F)c3nncn13)CCO2` [Example 191, 8-(4-(difluoromethyl)pyrimidin-5-yl)-N-((5-fluoro-2,3-dihydrobenzofuran-4-yl)methyl)-[1,2,4]triazolo[4,3-c]pyrimidin-5-amine], the results for the 50% inhibitory concentration (IC50) (at EED (1-441)-His protein; in test [1]) were 3.8 nM and 13.1 nM, respectively.
